Data published in patent publication US12673945B2, “3-((8-((1H-pyrazol-4-yl)amino)imidazo[1,2-a]pyridin-3-yl)ethinyl)-n-phenylbenzamide derivative, method for preparing same, and pharmaceutical composition containing same as active ingredient for prevention or treatment of cancer” (DAEGU-GYEONGBUK MEDICAL INNOVATION FOUNDATION, priority 2020, dated 2026).

What was measured:
Experiment in all cases: scanMAX Kinase panel (DiscoverX)
Assay type in all cases: binding
[1] = biological target: T1, MKNK2 (Homo sapiens, UniProt Q9HBH9); details: read-out: % Cont @ 1 uM
T1 construct: purchased DiscoverX scanMAX Kinase panel
Procedure, shortened: (§1)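 One concentration only, 1 μM in DMSO, in a panel-based kinase selectivity format; output given as percentage of control.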

[2] = biological target: T2, PAK3 (Homo sapiens, UniProt O75914); details: read-out: % Cont @ 1 uM
T2 construct: purchased DiscoverX scanMAX Kinase panel
Procedure, shortened: as §1

[3] = biological target: T3, FES (Homo sapiens, UniProt P07332); details: read-out: % Cont @ 1 uM
T3 construct: purchased DiscoverX scanMAX Kinase panel
Procedure, shortened: as §1

[4] = biological target: T4, VEGFR2 (Homo sapiens, UniProt P35968); details: read-out: % Cont @ 1 uM
T4 construct: purchased DiscoverX scanMAX Kinase panel
Procedure, shortened: as §1

[5] = biological target: T5, BRAF (Homo sapiens, UniProt P15056); details: read-out: % Cont @ 1 uM
T5 construct: purchased DiscoverX scanMAX Kinase panel
Procedure, shortened: as §1

[6] = biological target: T6, TNIK (Homo sapiens, UniProt Q9UKE5); details: read-out: % Cont @ 1 uM
T6 construct: purchased DiscoverX scanMAX Kinase panel
Procedure, shortened: as §1

[7] = biological target: T7, MAP3K3 (Homo sapiens, UniProt Q99759); details: read-out: % Cont @ 1 uM
T7 construct: purchased DiscoverX scanMAX Kinase panel
Procedure, shortened: as §1

[8] = biological target: T8, TAOK3 (Homo sapiens, UniProt Q9H2K8); details: read-out: % Cont @ 1 uM
T8 construct: purchased DiscoverX scanMAX Kinase panel
Procedure, shortened: as §1

[9] = biological target: T9, RIOK3 (Homo sapiens, UniProt O14730); details: read-out: % Cont @ 1 uM
T9 construct: purchased DiscoverX scanMAX Kinase panel
Procedure, shortened: as §1

[10] = biological target: T10, FLT4 (Homo sapiens, UniProt P35916); details: read-out: % Cont @ 1 uM
T10 construct: purchased DiscoverX scanMAX Kinase panel
Procedure, shortened: as §1

[11] = biological target: T11, TYK2(JH1domain-catalytic) (Homo sapiens, UniProt P29597)
T11 construct: TYK2(JH1domain-catalytic); purchased DiscoverX scanMAX Kinase panel
Procedure, shortened: as §1

[12] = biological target: T12, FLT3(D835H) (Homo sapiens, UniProt P36888, D835H); details: read-out: % Cont @ 1 uM
T12 construct: purchased DiscoverX scanMAX Kinase panel
Procedure, shortened: as §1

[13] = biological target: T13, RIPK1 (Homo sapiens, UniProt Q13546); details: read-out: % Cont @ 1 uM
T13 construct: purchased DiscoverX scanMAX Kinase panel
Procedure, shortened: as §1

[14] = biological target: T14, SRMS (Homo sapiens, UniProt Q9H3Y6); details: read-out: % Cont @ 1 uM
T14 construct: purchased DiscoverX scanMAX Kinase panel
Procedure, shortened: as §1

[15] = biological target: T15, CDK11 (Homo sapiens, UniProt Q9BWU1)
T15 construct: purchased DiscoverX scanMAX Kinase panel
Procedure, shortened: as §1

[16] = biological target: T16, DDR2 (Homo sapiens, UniProt Q16832); details: read-out: % Cont @ 1 uM
T16 construct: purchased DiscoverX scanMAX Kinase panel
Procedure, shortened: as §1

[17] = biological target: T17, MLK3 (Homo sapiens, UniProt Q16584)
T17 construct: purchased DiscoverX scanMAX Kinase panel
Procedure, shortened: as §1

[18] = biological target: T18, IKK-beta (Homo sapiens, UniProt O14920); details: read-out: % Cont @ 1 uM
T18 construct: purchased DiscoverX scanMAX Kinase panel
Procedure, shortened: as §1

[19] = biological target: T19, HPK1 (Homo sapiens, UniProt Q92918); details: read-out: % Cont @ 1 uM
T19 construct: purchased DiscoverX scanMAX Kinase panel
Procedure, shortened: as §1

[20] = biological target: T20, FGFR1 (Homo sapiens, UniProt P11362); details: read-out: % Cont @ 1 uM
T20 construct: purchased DiscoverX scanMAX Kinase panel
Procedure, shortened: as §1

[21] = biological target: T21, EPHA7 (Homo sapiens, UniProt Q15375); details: read-out: % Cont @ 1 uM
T21 construct: purchased DiscoverX scanMAX Kinase panel
Procedure, shortened: as §1

[22] = biological target: T22, JNK2 (Homo sapiens, UniProt P45984)
T22 construct: purchased DiscoverX scanMAX Kinase panel
Procedure, shortened: as §1

[23] = biological target: T23, DDR1 (Homo sapiens, UniProt Q08345); details: read-out: % Cont @ 1 uM
T23 construct: purchased DiscoverX scanMAX Kinase panel
Procedure, shortened: as §1

[24] = biological target: T24, KIT(L576P) (Homo sapiens, UniProt P10721, L576P); details: read-out: % Cont @ 1 uM
T24 construct: purchased DiscoverX scanMAX Kinase panel
Procedure, shortened: as §1

[25] = biological target: T25, BLK (Homo sapiens, UniProt P51451); details: read-out: % Cont @ 1 uM
T25 construct: purchased DiscoverX scanMAX Kinase panel
Procedure, shortened: as §1

[26] = biological target: T26, EGFR(L747-E749del, A750P) (Homo sapiens, UniProt P00533, A750P/DEL747-749)
T26 construct: purchased DiscoverX scanMAX Kinase panel
Procedure, shortened: as §1

[27] = biological target: T27, RET(V804M) (Homo sapiens, UniProt P07949, V804M); details: read-out: % Cont @ 1 uM
T27 construct: purchased DiscoverX scanMAX Kinase panel
Procedure, shortened: as §1

[28] = biological target: T28, PDGFRB (Homo sapiens, UniProt P09619); details: read-out: % Cont @ 1 uM
T28 construct: purchased DiscoverX scanMAX Kinase panel
Procedure, shortened: as §1

[29] = biological target: T29, MUSK (Homo sapiens, UniProt O15146); details: read-out: % Cont @ 1 uM
T29 construct: purchased DiscoverX scanMAX Kinase panel
Procedure, shortened: as §1

[30] = biological target: T30, ABL1(T315I)-phosphorylated (Homo sapiens, UniProt P00519, T315I); details: read-out: % Cont @ 1 uM
T30 construct: purchased DiscoverX
Procedure, shortened: as §1

[31] = biological target: T31, p38-beta (Homo sapiens, UniProt Q15759); details: read-out: % Cont @ 1 uM
T31 construct: purchased DiscoverX scanMAX Kinase panel
Procedure, shortened: as §1

T10 sequence (P35916 25-1363): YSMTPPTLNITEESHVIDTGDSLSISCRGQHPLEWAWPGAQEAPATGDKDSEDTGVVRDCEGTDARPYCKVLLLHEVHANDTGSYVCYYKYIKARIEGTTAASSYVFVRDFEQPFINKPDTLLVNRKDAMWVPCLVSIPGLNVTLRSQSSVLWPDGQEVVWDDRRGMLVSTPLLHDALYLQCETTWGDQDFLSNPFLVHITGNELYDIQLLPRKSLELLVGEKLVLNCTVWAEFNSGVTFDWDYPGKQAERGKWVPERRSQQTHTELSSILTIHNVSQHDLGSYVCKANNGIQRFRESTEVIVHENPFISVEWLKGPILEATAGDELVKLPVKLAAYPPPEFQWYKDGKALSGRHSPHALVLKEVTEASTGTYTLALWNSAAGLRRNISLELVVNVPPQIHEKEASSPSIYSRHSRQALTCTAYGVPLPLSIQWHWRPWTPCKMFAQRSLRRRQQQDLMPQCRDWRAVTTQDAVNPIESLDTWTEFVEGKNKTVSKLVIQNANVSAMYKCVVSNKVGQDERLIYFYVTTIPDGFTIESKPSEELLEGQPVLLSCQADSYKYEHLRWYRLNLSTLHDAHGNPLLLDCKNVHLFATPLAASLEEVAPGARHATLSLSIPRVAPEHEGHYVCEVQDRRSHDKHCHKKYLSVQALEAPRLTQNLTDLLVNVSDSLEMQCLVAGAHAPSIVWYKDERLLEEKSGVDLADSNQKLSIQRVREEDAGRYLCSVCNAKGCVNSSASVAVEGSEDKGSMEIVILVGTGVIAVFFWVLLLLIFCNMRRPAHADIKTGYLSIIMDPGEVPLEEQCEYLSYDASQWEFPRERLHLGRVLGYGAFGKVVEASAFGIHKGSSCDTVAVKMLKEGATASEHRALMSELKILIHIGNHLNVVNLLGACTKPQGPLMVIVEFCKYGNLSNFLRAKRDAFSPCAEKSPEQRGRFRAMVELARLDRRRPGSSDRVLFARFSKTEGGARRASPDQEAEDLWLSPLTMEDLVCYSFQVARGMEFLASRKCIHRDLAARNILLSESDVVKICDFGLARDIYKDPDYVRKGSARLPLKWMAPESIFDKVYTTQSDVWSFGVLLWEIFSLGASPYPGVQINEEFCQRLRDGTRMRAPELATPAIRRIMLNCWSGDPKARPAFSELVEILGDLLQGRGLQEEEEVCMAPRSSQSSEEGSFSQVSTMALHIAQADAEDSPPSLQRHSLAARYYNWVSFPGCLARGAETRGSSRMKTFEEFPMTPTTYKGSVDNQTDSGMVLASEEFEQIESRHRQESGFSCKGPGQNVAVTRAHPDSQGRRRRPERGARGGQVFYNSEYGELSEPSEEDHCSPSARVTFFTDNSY
T16 sequence (Q16832 22-855): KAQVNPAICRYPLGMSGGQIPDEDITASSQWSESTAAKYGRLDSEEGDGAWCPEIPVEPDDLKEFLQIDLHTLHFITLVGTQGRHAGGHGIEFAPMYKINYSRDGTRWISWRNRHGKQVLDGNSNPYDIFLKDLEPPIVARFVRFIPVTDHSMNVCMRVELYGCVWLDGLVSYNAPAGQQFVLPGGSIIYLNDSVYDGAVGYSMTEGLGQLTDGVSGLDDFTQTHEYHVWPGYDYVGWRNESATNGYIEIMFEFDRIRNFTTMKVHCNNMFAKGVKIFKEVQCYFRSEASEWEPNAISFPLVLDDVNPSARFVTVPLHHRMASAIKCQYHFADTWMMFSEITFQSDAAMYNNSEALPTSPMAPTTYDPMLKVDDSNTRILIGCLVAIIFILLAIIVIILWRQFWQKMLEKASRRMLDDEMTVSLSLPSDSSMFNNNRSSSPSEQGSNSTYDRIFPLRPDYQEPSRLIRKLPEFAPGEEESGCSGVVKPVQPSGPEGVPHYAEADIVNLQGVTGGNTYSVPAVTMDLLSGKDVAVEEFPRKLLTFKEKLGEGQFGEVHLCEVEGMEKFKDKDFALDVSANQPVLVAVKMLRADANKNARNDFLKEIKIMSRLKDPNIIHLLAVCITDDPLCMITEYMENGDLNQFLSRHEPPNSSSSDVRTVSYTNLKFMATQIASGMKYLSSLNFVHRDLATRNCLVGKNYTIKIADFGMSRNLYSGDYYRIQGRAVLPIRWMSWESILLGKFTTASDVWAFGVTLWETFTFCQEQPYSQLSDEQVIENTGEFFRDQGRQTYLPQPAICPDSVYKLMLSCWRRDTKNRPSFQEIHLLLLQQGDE
T31 sequence (Q15759 whole entry): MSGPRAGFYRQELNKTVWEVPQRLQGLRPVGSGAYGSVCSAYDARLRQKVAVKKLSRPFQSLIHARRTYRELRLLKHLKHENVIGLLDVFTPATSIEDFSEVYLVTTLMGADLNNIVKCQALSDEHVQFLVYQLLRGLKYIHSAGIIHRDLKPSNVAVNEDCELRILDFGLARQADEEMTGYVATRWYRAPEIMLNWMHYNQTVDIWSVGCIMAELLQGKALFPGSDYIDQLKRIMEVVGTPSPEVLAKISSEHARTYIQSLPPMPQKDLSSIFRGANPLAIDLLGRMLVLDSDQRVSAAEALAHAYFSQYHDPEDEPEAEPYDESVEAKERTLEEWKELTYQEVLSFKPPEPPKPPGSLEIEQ
T5 sequence (P15056 whole entry): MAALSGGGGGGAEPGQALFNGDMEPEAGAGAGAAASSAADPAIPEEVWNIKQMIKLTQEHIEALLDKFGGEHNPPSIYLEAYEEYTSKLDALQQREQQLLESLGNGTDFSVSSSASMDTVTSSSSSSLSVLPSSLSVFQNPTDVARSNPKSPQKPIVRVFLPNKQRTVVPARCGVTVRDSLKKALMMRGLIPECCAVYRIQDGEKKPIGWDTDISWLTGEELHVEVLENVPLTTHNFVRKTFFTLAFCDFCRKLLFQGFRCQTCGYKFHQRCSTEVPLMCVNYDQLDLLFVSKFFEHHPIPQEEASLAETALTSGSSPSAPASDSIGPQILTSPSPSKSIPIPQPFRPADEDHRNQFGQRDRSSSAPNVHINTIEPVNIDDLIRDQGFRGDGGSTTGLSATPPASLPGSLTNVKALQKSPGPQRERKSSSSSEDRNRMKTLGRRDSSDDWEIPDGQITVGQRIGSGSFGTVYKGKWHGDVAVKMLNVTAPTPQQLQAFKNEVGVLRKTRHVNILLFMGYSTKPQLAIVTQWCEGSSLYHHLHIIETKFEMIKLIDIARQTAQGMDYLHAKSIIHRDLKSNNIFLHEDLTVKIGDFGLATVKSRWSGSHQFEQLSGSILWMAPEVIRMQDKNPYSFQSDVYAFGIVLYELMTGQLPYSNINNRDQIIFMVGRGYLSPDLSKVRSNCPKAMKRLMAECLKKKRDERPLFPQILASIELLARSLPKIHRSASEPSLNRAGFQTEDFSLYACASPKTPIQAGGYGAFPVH
T27 sequence (P07949 29-1114 V804M): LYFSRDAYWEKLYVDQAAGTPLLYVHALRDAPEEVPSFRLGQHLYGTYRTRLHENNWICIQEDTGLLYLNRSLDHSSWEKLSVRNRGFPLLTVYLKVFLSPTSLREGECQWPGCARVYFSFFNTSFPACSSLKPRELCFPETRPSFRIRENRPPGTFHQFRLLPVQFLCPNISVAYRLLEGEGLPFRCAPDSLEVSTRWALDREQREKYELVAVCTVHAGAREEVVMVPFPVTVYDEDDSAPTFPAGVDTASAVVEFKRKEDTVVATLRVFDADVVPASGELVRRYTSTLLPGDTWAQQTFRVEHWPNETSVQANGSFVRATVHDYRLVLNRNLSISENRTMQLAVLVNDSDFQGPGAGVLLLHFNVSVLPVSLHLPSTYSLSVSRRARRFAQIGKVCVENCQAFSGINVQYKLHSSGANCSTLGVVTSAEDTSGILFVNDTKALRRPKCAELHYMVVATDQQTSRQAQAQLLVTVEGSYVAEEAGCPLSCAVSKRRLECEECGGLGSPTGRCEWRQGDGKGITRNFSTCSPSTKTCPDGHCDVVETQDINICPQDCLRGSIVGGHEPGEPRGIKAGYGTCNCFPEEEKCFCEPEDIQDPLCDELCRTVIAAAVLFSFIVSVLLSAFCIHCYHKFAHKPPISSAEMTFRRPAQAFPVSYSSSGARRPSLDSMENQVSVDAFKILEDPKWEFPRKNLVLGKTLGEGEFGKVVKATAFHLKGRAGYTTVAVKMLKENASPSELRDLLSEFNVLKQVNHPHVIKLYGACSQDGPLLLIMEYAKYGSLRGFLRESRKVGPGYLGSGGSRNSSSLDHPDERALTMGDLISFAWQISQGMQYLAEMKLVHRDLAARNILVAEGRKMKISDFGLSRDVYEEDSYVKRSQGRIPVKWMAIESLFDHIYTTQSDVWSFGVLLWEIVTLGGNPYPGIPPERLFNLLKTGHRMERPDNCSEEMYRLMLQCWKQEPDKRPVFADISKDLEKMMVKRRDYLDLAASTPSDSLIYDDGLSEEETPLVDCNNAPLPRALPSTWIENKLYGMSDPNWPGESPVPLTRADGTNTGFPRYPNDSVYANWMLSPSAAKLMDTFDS
T2 sequence (O75914 whole entry): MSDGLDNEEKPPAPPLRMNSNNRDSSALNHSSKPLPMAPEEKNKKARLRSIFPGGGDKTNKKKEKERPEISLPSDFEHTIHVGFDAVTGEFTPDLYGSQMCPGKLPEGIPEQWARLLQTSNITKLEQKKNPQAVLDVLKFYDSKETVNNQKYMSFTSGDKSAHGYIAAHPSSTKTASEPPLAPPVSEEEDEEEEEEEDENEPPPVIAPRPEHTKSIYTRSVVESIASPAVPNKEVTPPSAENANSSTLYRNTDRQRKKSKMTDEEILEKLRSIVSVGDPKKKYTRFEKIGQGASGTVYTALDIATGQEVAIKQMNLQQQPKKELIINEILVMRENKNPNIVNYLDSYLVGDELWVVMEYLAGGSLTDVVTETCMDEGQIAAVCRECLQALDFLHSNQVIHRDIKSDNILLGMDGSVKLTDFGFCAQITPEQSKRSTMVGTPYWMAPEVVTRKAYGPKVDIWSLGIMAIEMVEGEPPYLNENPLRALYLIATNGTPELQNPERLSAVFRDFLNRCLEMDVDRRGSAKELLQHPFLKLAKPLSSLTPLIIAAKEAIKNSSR

| Structure (SMILES) | remaining binding at 1 µM [1] [%] | remaining binding at 1 µM [2] [%] | remaining binding at 1 µM [3] [%] | remaining binding at 1 µM [4] [%] | remaining binding at 1 µM [5] [%] | remaining binding at 1 µM [6] [%] | remaining binding at 1 µM [7] [%] | remaining binding at 1 µM [8] [%] | remaining binding at 1 µM [9] [%] | remaining binding at 1 µM [10] [%] | % Cont @ 1 uM [11] [%] | remaining binding at 1 µM [12] [%] | remaining binding at 1 µM [13] [%] | remaining binding at 1 µM [14] [%] | % Cont @ 1 uM [15] [%] | remaining binding at 1 µM [16] [%] | % Cont @ 1 uM [17] [%] | percent of control binding at 1 µM [18] [%] | remaining binding at 1 µM [19] [%] | remaining binding at 1 µM [20] [%] | other results |
| --- | --- | --- | --- | --- | --- | --- | --- | --- | --- | --- | --- | --- | --- | --- | --- | --- | --- | --- | --- | --- | --- |
| Cc1cn(-c2cc(NC(=O)c3cc(C#Cc4cnc5c(Nc6cnn(C)c6)cccn45)c(C)cc3F)cc(C(F)(F)F)c2)cn1 [Example 4, 2-fluoro-4-methyl-N-(3-(4-methyl-1H-imidazol-1-yl)-5-(trifluoromethyl)phenyl)-5-((8-((1-methyl-1H-pyrazol-4-yl)amino)imidazo[1,2-a]pyridin-3-yl)ethynyl)benzamide] | 96 | 10 | 55 | 36 | 34 | 25 | 82 | 12 | 40 | 4.4 | 72 | 4.5 | 44 | 54 | 55 | 6.5 | 57 | 56 | 41 | 27 | remaining binding at 1 µM [21]: 63%; % Cont @ 1 uM [22]: 81%; remaining binding at 1 µM [23]: 0%; remaining binding at 1 µM [24]: 2.8%; remaining binding at 1 µM [25]: 0.4%; % Cont @ 1 uM [26]: 24%; remaining binding at 1 µM [27]: 4.3%; remaining binding at 1 µM [28]: 0.05%; remaining binding at 1 µM [29]: 46%; remaining binding at 1 µM [30]: 16%; remaining binding at 1 µM [31]: 15% |
| Cc1cn(-c2cc(NC(=O)c3cc(C#Cc4cnc5c(Nc6cnn(C)c6)cccn45)c(C)cc3F)cc(C(C)(C)C#N)c2)cn1 [Example 1, N-(3-(2-cyanopropane-2-yl)-5-(4-methyl-1H-imidazol-1-yl)phenyl)-2-fluoro-4-methyl-5-((8-((1-methyl-1H-pyrazol-4-yl)amino)imidazo[1,2-a]pyridin-3-yl)ethynyl)benzamide] | 0.7 | 7.1 | 1.6 | 6.1 | 13 | 7.2 | 19 | 1.6 | 31 | 0.35 | 33 | 0.45 | 1.6 | 1.2 | 14.8 | 2 | 10 | 26 | 2 | 1.2 | remaining binding at 1 µM [21]: 16%; % Cont @ 1 uM [22]: 12%; remaining binding at 1 µM [23]: 0.15%; remaining binding at 1 µM [24]: 1.4%; remaining binding at 1 µM [25]: 0.05%; % Cont @ 1 uM [26]: 11%; remaining binding at 1 µM [27]: 0.35%; remaining binding at 1 µM [28]: 0%; remaining binding at 1 µM [29]: 5%; remaining binding at 1 µM [30]: 2.3%; remaining binding at 1 µM [31]: 0.85% |
